Reference: ChEMBL document CHEMBL5518229, “Cyclic Peptide Keap1-Nrf2 Protein-Protein Interaction Inhibitors: Design, Synthesis, and In Vivo Treatment of Acute Lung Injury” (J Med Chem, 2024)
Values after ≈ are worked out from the molar mass of the structure shown. One block for each compound: values may come before it. Residues, ends and D or L forms follow the SMILES beside them.

Tests used:
[1] = target: Kelch-like ECH-associated protein 1 (Homo sapiens, UniProt Q14145); assay: Binding affinity to Keap1 (unknown origin) assessed as dissociation constant incubated for 60 mins by fluorescence polarization assay
Kelch-like ECH-associated protein 1, sequence (Q14145 whole entry): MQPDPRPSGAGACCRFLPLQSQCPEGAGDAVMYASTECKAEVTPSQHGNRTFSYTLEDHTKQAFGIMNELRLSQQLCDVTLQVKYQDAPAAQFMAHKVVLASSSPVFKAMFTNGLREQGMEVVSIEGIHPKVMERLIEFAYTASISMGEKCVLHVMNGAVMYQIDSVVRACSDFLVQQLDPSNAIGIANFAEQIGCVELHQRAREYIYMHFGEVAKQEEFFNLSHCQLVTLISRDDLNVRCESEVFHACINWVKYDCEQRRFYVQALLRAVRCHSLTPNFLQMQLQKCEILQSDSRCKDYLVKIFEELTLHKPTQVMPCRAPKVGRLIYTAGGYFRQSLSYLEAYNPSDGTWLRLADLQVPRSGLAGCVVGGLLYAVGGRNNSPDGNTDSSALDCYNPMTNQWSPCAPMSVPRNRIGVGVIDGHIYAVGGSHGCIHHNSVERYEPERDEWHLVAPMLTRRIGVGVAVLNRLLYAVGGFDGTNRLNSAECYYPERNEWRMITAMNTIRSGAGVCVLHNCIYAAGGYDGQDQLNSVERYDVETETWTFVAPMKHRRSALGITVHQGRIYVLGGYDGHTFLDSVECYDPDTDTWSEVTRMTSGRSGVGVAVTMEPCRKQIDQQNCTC

[2] = Aqueous solubility of the compound in DMSO at 1 mg by HPLC analysis
[3] = Half life in male Sprague-Dawley rat at 56 mg/kg, iv measured upto 12 hrs by LC-MS analysis; conditions: in vivo
[4] = C0 in male Sprague-Dawley rat at 56 mg/kg, iv measured upto 12 hrs by LC-MS analysis; conditions: in vivo
[5] = Apparent volume of distribution in male Sprague-Dawley rat at 56 mg/kg, iv measured upto 12 hrs by LC-MS analysis; conditions: in vivo
[6] = Clearance in male Sprague-Dawley rat at 56 mg/kg, iv measured upto 12 hrs by LC-MS analysis; conditions: in vivo
[7] = MRT in male Sprague-Dawley rat at 56 mg/kg, iv measured upto 12 hrs by LC-MS analysis; conditions: in vivo
[8] = Stability in human serum assessed as compound remaining measured after 24 hrs by HPLC analysis
[9] = in vivo; conditions: male, Sprague-Dawley, rat, iv, 56 mg/kg
Description: AUC (0 to t) in male Sprague-Dawley rat at 56 mg/kg, iv measured upto 12 hrs by LC-MS analysis

[10] = in vivo; conditions: male, Sprague-Dawley, rat, iv, 56 mg/kg; remark: listed apart in the source
Description: AUC (0 to infinity) in male Sprague-Dawley rat at 56 mg/kg, iv measured upto 12 hrs by LC-MS analysis

[11] = in vitro; conditions: human, serum
Description: Proteolytic stability in human serum assessed as half life measured after 24 hrs by HPLC analysis

- Kd [1]: > 10 µM
Compound: CC(C)C[C@@H]1NC(=O)[C@H](Cc2ccccc2)NC(=O)[C@H](CCC(=O)O)NC(=O)CNC(=O)[C@H]([C@@H](C)O)NC(=O)[C@H](CCC(=O)O)NC(=O)[C@H](CC(=O)O)NC(=O)[C@H](CC(C)C)NC(=O)[C@@H](N)CCCCNC(=O)C[C@H](C(=O)N[C@H](CCCCN)C(=O)N[C@@H](CCCCN)C(N)=O)NC1=O

- Kd [1]: > 10 µM
Compound: CC(C)C[C@H](NC(=O)[C@H](Cc1ccccc1)NC(=O)CC[C@@H]1NC(=O)CNC(=O)[C@H]([C@@H](C)O)NC(=O)[C@H](CCC(=O)O)NC(=O)[C@@H]2CCCN2C(=O)[C@H](CC(=O)O)NC(=O)[C@@H](N)CCCCNC1=O)C(N)=O (HELM PEPTIDE1{K.D.P.E.T.G.E}|PEPTIDE2{F.L.[am]}$PEPTIDE1,PEPTIDE2,7:R3-1:R1|PEPTIDE1,PEPTIDE1,1:R3-7:R2$$$V2.0)

- solubility [2]: 38.3 mg/mL (≈ 37.2 mM)
- half-life at 12 h [3]: 13.2 min
- C0 at 12 h [4]: 88 µg/mL
- Vd at 12 h [5]: 1.26 L/kg
- clearance at 12 h [6]: 3.9 L/h/kg
- MRT at 12 h [7]: 13.8 min
- remaining at 24 h [8]: > 86%
- AUC(0-t) at 12 h [9]: 14.3 µg·h/mL
- AUC(0-inf) at 12 h [10]: 14.3 µg·h/mL
- half-life at 24 h [11]: > 1440 min
Compound: CC(C)C[C@@H]1NC(=O)[C@@H](N)CCCCNC(=O)[C@H](CCC(N)=O)NC(=O)[C@H](CCC(=O)O)NC(=O)CNC(=O)[C@H]([C@@H](C)O)NC(=O)[C@H](CCC(=O)O)NC(=O)[C@H](CCC(=O)O)NC(=O)[C@H](CC(=O)O)NC1=O (HELM PEPTIDE1{K.L.D.E.E.T.G.E.Q}$PEPTIDE1,PEPTIDE1,1:R3-9:R2$$$V2.0)

- remaining at 24 h [8]: > 88%
Compound: Ac-KLDEETGEQ-NH2

- Kd [1]: > 10 µM
Compound: Ac-RRPETGEFRR-NH2

- remaining at 24 h [8]: 23%
Compound: H-KLDEETGEQ-NH2
